Assay results as given in patent US12336991B2, “Factor XIIA inhibitors” (UNIVERSITY OF LEEDS, priority 2018, dated 2025).

Assays:
Type in all cases: biochemical
[1] = target: T1, thrombin (Homo sapiens, UniProt P00734); experiment: Determination of selectivity: thrombin inhibition, chromogenic substrate GPR assay; settings: fold selectivity for FXIIa over thrombin
T1 construct: FXa (5 nM) and thrombin (5 nM)
Outline: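 Thrombin (5 nM) preincubated with compound 10 min at 37 °C in 50 mM Tris, 137 mM NaCl, pH 7.4, 5% DMSO, then GPR substrate ([…]) added. Absorbance at 405 nm read kinetically for 3 h; IC50 from initial rates, converted to Ki via Ki=IC50/(1+[S]/Km).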

[2] = target: T2, FXIIa (Homo sapiens, UniProt P00748); experiment: Determination of Factor XIIa inhibition, chromogenic substrate S-2302 assay; settings: human FXIIa alpha
T2 sequence (P00748 373-615 limits assumed): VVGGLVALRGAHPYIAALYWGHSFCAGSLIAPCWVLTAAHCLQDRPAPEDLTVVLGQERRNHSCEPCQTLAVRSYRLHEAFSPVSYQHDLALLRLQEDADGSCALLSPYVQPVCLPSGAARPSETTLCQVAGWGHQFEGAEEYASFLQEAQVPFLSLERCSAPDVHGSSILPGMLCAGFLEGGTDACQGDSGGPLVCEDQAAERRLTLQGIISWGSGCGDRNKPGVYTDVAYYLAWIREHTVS
T2 sequence (P00748 20-372 partner limits assumed): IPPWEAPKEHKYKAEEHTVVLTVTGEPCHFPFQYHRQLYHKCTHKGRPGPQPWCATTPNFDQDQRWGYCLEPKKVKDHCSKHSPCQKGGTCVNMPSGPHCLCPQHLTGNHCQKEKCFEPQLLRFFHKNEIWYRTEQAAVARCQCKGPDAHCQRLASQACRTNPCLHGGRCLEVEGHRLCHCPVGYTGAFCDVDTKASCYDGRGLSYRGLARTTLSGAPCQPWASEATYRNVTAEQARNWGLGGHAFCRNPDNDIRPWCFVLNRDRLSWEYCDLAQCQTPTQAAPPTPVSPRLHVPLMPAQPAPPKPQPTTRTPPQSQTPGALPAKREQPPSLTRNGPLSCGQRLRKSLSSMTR
Outline: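 FXIIa (10 nM) preincubated with compound 10 min at 37° C. in 50 mM Tris, 137 mM NaCl pH 7.4, 5% DMSO, top concentration 500 μM, then S-2302 added ([…]). Absorbance at 405 nm read kinetically for 3 h; IC50 from initial rates, converted to Ki by Cheng-Prusoff.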

[3] = target: FXa (Homo sapiens, UniProt P00742); experiment: Determination of selectivity: FXa inhibition, chromogenic substrate S2765 assay; settings: fold selectivity for FXIIa over FXa
FXa, sequence (P00742 235-488 limits assumed): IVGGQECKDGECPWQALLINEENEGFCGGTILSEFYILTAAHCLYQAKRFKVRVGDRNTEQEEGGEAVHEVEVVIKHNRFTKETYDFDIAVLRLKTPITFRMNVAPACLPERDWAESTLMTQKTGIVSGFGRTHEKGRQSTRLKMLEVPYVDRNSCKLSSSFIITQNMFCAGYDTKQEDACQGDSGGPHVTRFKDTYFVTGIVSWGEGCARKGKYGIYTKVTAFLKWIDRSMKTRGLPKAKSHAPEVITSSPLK
FXa, sequence (P00742 41-179 partner limits assumed): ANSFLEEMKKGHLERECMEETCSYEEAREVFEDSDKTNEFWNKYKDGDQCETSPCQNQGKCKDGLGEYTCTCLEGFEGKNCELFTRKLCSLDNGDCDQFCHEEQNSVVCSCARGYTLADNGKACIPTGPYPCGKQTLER
Outline: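 Human FXa (5 nM) preincubated with compound (top 500 μM, 5% DMSO) 10 min at 37 °C in 50 mM Tris, 137 mM NaCl pH 7.4, then S2765 ([…]) added; A405 kinetics over 3 h at 37 °C. IC50 from initial rates, converted to Ki via Cheng-Prusoff.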

| Structure (SMILES) | Thrombin (human)/FXIIa alpha (human) [1] | Ki [2] | FXa (human)/FXIIa alpha (human) [3] |
| --- | --- | --- | --- |
| Cn1nnc2cc(CNC(=O)[C@@H]3C[C@H](c4ccccc4)CN3C(=O)[C@H](N)CCc3ccccc3)ccc21 [Example M05163] | ++ (fold selectivity value of 10 to 100) | > 2000 nM | ∘∘ |
| Cn1nnc2cc(CNC(=O)[C@@H]3C[C@H](c4ccccc4Oc4ccccc4)CN3C(=O)[C@H](N)CCc3ccccc3)ccc21 [Example M05174] | ++ (fold selectivity value of 10 to 100) | > 2000 nM | ∘∘ |
| Cn1nnc2cc(CNC(=O)[C@@H]3C[C@@H](NC(=O)c4ccccc4)CN3C(=O)[C@H](N)CCc3ccccc3)ccc21 [Example M05179] | ++ (fold selectivity value of 10 to 100) | > 2000 nM | ∘∘ |
| Cn1nnc2cc(CNC(=O)[C@@H]3C[C@@H](Cc4ccncc4)CN3C(=O)[C@H](N)CCC(=O)N3CCCC3)ccc21 [Example M05189] | +++ (fold selectivity values greater than 100) | 200 to 2000 nM | ∘∘∘ |
| Cn1nnc2cc(CNC(=O)[C@@H]3C[C@@H](Cc4cccc(Cl)c4)CN3C(=O)[C@H](N)CCC(=O)N3CCCC3)ccc21 [Example M05190] | +++ (fold selectivity values greater than 100) | < 200 nM | ∘∘∘ |
| Cn1nnc2cc(CNC(=O)[C@@H]3C[C@H](NC4CCCCC4)CN3C(=O)[C@H](N)CCc3ccccc3)ccc21 [Example M05203] | ++ (fold selectivity value of 10 to 100) | > 2000 nM | ∘∘ |
| Cn1nnc2cc(CNC(=O)[C@@H]3C[C@H](NCCc4ccccc4)CN3C(=O)[C@H](N)CCc3ccccc3)ccc21 [Example M05205] | ++ (fold selectivity value of 10 to 100) | > 2000 nM | ∘∘ |
| COC(=O)N[C@H]1C[C@@H](C(=O)NCc2ccc3c(c2)nnn3C)N(C(=O)[C@H](N)CCc2ccccc2)C1 [Example M05207] | ++ (fold selectivity value of 10 to 100) | > 2000 nM | ∘∘ |
| CNC(=O)N[C@H]1C[C@@H](C(=O)NCc2ccc3c(c2)nnn3C)N(C(=O)[C@H](N)CCc2ccccc2)C1 [Example M05208] | ++ (fold selectivity value of 10 to 100) | > 2000 nM | ∘∘ |
| Cn1nnc2cc(CNC(=O)[C@@H]3C[C@H](Cc4cccc(Cl)c4)CN3C(=O)[C@H](N)CCC(=O)N3CCCC3)ccc21 [Example M05210, (2S,4S)-1-((R)-2-amino-5-oxo-5-pyrrolidin-1-yl-pentanoyl)-4-(3-chloro-benzyl)-pyrrolidine-2-carboxylic acid (1-methyl-1H-benzotriazol-5-ylmethyl)-amide] | +++ (fold selectivity values greater than 100) | 200 to 2000 nM | ∘∘∘ |
| Cn1nnc2cc(CNC(=O)[C@@H]3C[C@H](Cc4ccccc4)CN3C(=O)[C@H](N)CCC(=O)N3CCCC3)ccc21 [Example M05211, (2S,4S)-1-((R)-2-Amino-5-oxo-5-pyrrolidin-1-yl-pentanoyl)-4-benzyl-pyrrolidine-2-carboxylic acid (1-methyl-1H-benzotriazol-5-ylmethyl)-amide] | +++ (fold selectivity values greater than 100) | 200 to 2000 nM | ∘∘∘ |
| Cn1nnc2cc(CNC(=O)[C@@H]3C[C@H](NC(=O)Cc4ccccc4)CN3C(=O)[C@H](N)CCc3ccccc3)ccc21 [Example M05216] | ++ (fold selectivity value of 10 to 100) | > 2000 nM | ∘∘ |
| Cn1nnc2cc(CNC(=O)[C@@H]3C[C@@H](Cc4cccnc4)CN3C(=O)[C@H](N)CCC(=O)N3CCCC3)ccc21 [Example M05218] | +++ (fold selectivity values greater than 100) | 200 to 2000 nM | ∘∘∘ |
| CN(C)[C@H](CCC(=O)N1CCCC1)C(=O)N1C[C@H](Cc2cccnc2)C[C@H]1C(=O)NCc1ccc2c(c1)c(Cl)nn2C [Example M05219] | +++ (fold selectivity values greater than 100) | < 200 nM | ∘∘∘ |
| CN(C)[C@H](CCC(=O)N1CCCC1)C(=O)N1C[C@H](Cc2ccncc2)C[C@H]1C(=O)NCc1ccc2c(c1)nnn2C [Example M05220] | +++ (fold selectivity values greater than 100) | 200 to 2000 nM | ∘∘∘ |
| CN(C)[C@H](CCC(=O)N1CCCC1)C(=O)N1C[C@H](Cc2cccnc2)C[C@H]1C(=O)NCc1ccc2c(c1)nnn2C [Example M05222] | +++ (fold selectivity values greater than 100) | 200 to 2000 nM | ∘∘∘ |
| CN(C)[C@H](CCC(=O)N1CCCC1)C(=O)N1C[C@H](Cc2cccnc2)C[C@H]1C(=O)NCc1ccc2c(cnn2C)c1 [Example M05223] | +++ (fold selectivity values greater than 100) | 200 to 2000 nM | ∘∘∘ |
| Cn1nc(Cl)c2cc(CNC(=O)[C@@H]3C[C@@H](Cc4cccnc4)CN3C(=O)[C@H](N)CCC(=O)N3CCCC3)ccc21 [Example M05224] | +++ (fold selectivity values greater than 100) | < 200 nM | ∘∘∘ |
| Cn1ncc2cc(CNC(=O)[C@@H]3C[C@@H](Cc4cccnc4)CN3C(=O)[C@H](N)CCC(=O)N3CCCC3)ccc21 [Example M05228] | +++ (fold selectivity values greater than 100) | 200 to 2000 nM | ∘∘∘ |
| Cn1nnc2cc(CNC(=O)[C@@H]3C[C@H](Cc4cccc(F)c4)CN3C(=O)[C@H](N)CCC(=O)N3CCCC3)ccc21 [Example M05232] | +++ (fold selectivity values greater than 100) | 200 to 2000 nM | ∘∘∘ |
| Cn1nnc2cc(CNC(=O)[C@@H]3C[C@@H](Cc4ccc(F)cc4F)CN3C(=O)[C@H](N)CCC(=O)N3CCCC3)ccc21 [Example M05235] | +++ (fold selectivity values greater than 100) | < 200 nM | ∘∘∘ |

Next, values leading:

| Thrombin (human)/FXIIa alpha (human) [1] | Ki [2] | FXa (human)/FXIIa alpha (human) [3] | Structure (SMILES) |
| --- | --- | --- | --- |
| ++ (fold selectivity value of 10 to 100) | > 2000 nM | ∘∘ | Cn1ncc2cc(CNC(=O)[C@@H]3C[C@@H](c4ccccc4)CN3C(=O)[C@H](N)CCc3ccccc3)ccc21 [Example M05188] |
| ++ (fold selectivity value of 10 to 100) | > 2000 nM | ∘∘ | Cn1nnc2cc(CNC(=O)[C@@H]3C[C@H](NC(=O)CCc4ccccc4)CN3C(=O)[C@H](N)CCc3ccccc3)ccc21 [Example M05195] |
| ++ (fold selectivity value of 10 to 100) | > 2000 nM | ∘∘ | Cn1nnc2cc(CNC(=O)[C@@H]3C[C@H](NC(=O)CCCc4ccccc4)CN3C(=O)[C@H](N)CCc3ccccc3)ccc21 [Example M05196] |
| ++ (fold selectivity value of 10 to 100) | > 2000 nM | ∘∘ | Cn1nnc2cc(CNC(=O)[C@@H]3C[C@H](N4CCN(Cc5ccccc5)CC4)CN3C(=O)[C@H](N)CCc3ccccc3)ccc21 [Example M05200, (2S,4S)-1-((R)-2-Amino-4-phenyl-butyryl)-4-(4-benzyl-piperazin-1-yl)-pyrrolidine-2-carboxylic acid (1-methyl-1H-benzotriazol-5-ylmethyl)-amide] |
| ++ (fold selectivity value of 10 to 100) | > 2000 nM | ∘∘ | Cn1nnc2cc(CNC(=O)[C@@H]3CC(NCC4CCCCC4)CN3C(=O)[C@H](N)CCc3ccccc3)ccc21 (stereo partly drawn) [Example M05204] |
| ++ (fold selectivity value of 10 to 100) | > 2000 nM | ∘∘ | Cn1nnc2cc(CNC(=O)[C@@H]3C[C@H](NCCCc4ccccc4)CN3C(=O)[C@H](N)CCc3ccccc3)ccc21 [Example M05206] |
| + (fold selectivity values less than 10) | 200 to 2000 nM | ∘∘ | Nc1nccc2cc(CNC(=O)[C@@H]3CCCN3C(=O)[C@H](N)CCc3ccccc3)ccc12 [Example M05237] |
